Laboratory results: patent publication US20230181678A1, “NOVEL ANTIBACTERIAL PEPTIDE OR PEPTIDE ANALOG AND USE THEREOF” (CAMP THERAPEUTICS INC., priority 2020, published 2023)
* marks the point of attachment. Octanoyl = CCCCCCCC(=O)*

Assays:
A. baumannii ATCC 17978 = experiment: Neutropenic mouse thigh infection model; assay type: in vivo
Description: To induce neutropenia in 6-week-old female ICR (CD-1) mice weighing 23 g to 27 g (Orient Bio, Seongnam, Korea), the mice were treated (subcutaneously injected) with 150 mg/kg and 100 mg/kg of cyclophosphamide (CP), respectively, 5 days and 2 days before thigh infection. A. baumannii ATCC 17978 was harvested, washed, and suspended in sterile saline. The mice were anesthetized and infected with 1×10^5 CFU A. baumannii ATCC 17978 in the right and left thighs. […] The sensitizing peptide CMP1401 was administered by intraperitoneal injection 1, 3, 5, and 7 hours after infection. The mice were euthanized 9 hours after bacterial injection. Both thighs were harvested and suspended in sterile saline. The thighs were homogenized and serially diluted in sterile saline. The homogenized thighs were applied to tryptic soy agar plates, incubated overnight at 37° C., and the number of colonies was counted.

[1] = tested on: inner membrane of E. coli ATCC 25922; experiment: Enzyme assay, inner membrane leakage (β-galactosidase release, ONPG); assay type: cell-based; conditions: 1.5 mM ONPG
Description: It was observed, through an enzyme assay, whether the sensitizing peptide destroyed the outer and inner membranes of Gram-negative bacteria. In the presence of the sensitizing peptide, it was observed whether in a case where 1.5 mM ONPG was used together therewith, β-galactosidase was released from E. coli ATCC 25922 for the inner membrane, and whether in a case where 200 μM CENTA was used together therewith, β-lactamase was released from E. coli NDM-1 for the outer membrane.
To determine leakage of the inner membrane, release of the cytoplasmic enzyme β-galactosidase was evaluated. The bacteria were diluted to OD600=1 and 1.5 mM ONPG (O-nitrophenyl-β-D-galactopyranoside) was added. Absorbance of a product of enzyme reaction was measured at 420 nm. The other procedures were carried out in the same manner as in the experiment for outer membrane destruction.

A. baumannii 801 [2] = experiment: Immunosuppressed rat pneumonia infection model; assay type: in vivo; conditions: 5 mg/kg of rifampicin and 3 mg/kg or 6 mg/kg of CMP1401 (intravenous infusion 1 hour) vs 32 mg/kg colistin
Description: The results are illustrated in FIG. 16.
32 mg/kg of colistin is known as a clinical dose used for treatment of A. baumannii 801. Therefore, an effect observed in a case where 32 mg/kg of colistin was used alone may be a criterion for comparing effectiveness of co-administration of CMP1401 and an antibacterial agent in this example.

Kp NDM-1 = experiment: MIC assay, sensitizing effect of peptide on rifampicin (CRE); assay type: cell-based, Klebsiella pneumoniae; conditions: FIG. 9F; Kp NDM-1 (CRE); peptide 4 ug/ml
Description: (§1) All MIC assay experiments were performed using the Clinical and Laboratory Standards Institute (CLSI) guidelines (Clinical & Laboratory Standards Institute: CLSI Guidelines, 2017). Bacterial cells cultured overnight were diluted to 0.05 McFarland standard using McFarland (KIT […] PLUS INSTRUMENT, Biomerieux) in Muller Hinton II Broth (cation-adjusted) (Difco). The cells were inoculated at 1.5×10^5 CFU per 200 μL solution of each well in a 96-well plate. The peptide and the antibiotic were prepared using 2-fold serially diluted concentrations. […] Incubation was performed at 37° C. for 18 hours, and then absorbance was measured at 600 nm using an EPOCH2 microplate reader (BioTek, Winooski, USA) to calculate a MIC value. The MIC value was defined as a concentration of the antibiotic or peptide at which bacterial growth was inhibited to a level of lower than 10% growth of the positive control. Fold reduction was calculated using the following expression.
(§2) ATCC 25922, A.b. ATCC 17978, K.p. ATCC 700603, and P.a. ATCC 27853, or CRE (E.c. NDM-1, K.p. NDM-1, or K.p. KPC) (FIGS. 9 and 10).

A. baumannii 801 [3] = experiment: Neutropenic mouse pneumonia model, number of colonies in lungs; assay type: in vivo
Description: (§3) To induce neutropenia in 6-week-old female ICR (CD-1) mice weighing 23 g to 27 g (Orient Bio, Seongnam, Korea), the mice were treated (subcutaneously injected) with 150 mg/kg and 100 mg/kg of cyclophosphamide (CP), respectively, 4 days and 1 day before pneumonia infection. For a mouse model for survival analysis, the mice were infected intranasally with 1×10^8 CFU A. baumannii 801; and for a mouse model for colony number counting, the mice were infected intranasally with 1×10^6 CFU A. baumannii 801.
In addition to the survival rate in the neutropenic mouse pneumoniae mouse model, the number of colonies of A. baumannii 801 was measured in the mouse lungs. The mice were euthanized and lungs were harvested in sterile saline. The lungs were homogenized and serially diluted in sterile saline. The homogenized lungs were applied to tryptic soy agar plates, incubated at 37° C. overnight, and the number of colonies was counted. […] Six mice were used per each group.

P.a. ATCC 27853 = experiment: MIC assay, sensitizing effect of peptide on rifampicin or colistin; assay type: cell-based, Pseudomonas aeruginosa; conditions: peptide 4 ug/ml
Description: as §1, §2

[4] = tested on: Acinetobacter baumannii ATCC 17978; experiment: MIC assay, sensitizing effect of peptide on antibiotics; assay type: cell-based
A. baumannii 801 [5] = experiment: Immunosuppressed mouse pneumonia infection survival model; assay type: in vivo
Description: as §3
The sensitizing peptide CMP1401 of the present disclosure was administered by intraperitoneal injection 4 times daily for 2 days (25 mg/kg QID). Six mice were used per each group.

Ec NDM-1 = experiment: MIC assay, sensitizing effect of peptide on rifampicin (CRE); assay type: cell-based, E. coli; conditions: FIG. 9E; Ec NDM-1 (CRE); peptide 4 ug/ml
Description: as §1, §2

K.p. ATCC 700603 = experiment: MIC assay, sensitizing effect of peptide on rifampicin; assay type: cell-based, Klebsiella pneumoniae; conditions: FIG. 9C, peptide 4 ug/ml
Description: as §1, §2

K.p. KPC = experiment: MIC assay, sensitizing effect of peptide on rifampicin or colistin (CRE); assay type: cell-based, Klebsiella pneumoniae; conditions: peptide 4 ug/ml
Description: as §1, §2

[6] = 2.5 mg/kg rifampicin + 25 mg/kg CMP1401 vs 2.5 mg/kg rifampicin alone

In the case of “OctA-KKALKLAKKPLKLLK-NH2 (Octanoyl-KKALKLAKKPLKLLK-NH2) [CMP1401]”, the “decrease in number of colonies compared with rifampicin alone” value (A. baumannii ATCC 17978; CMP1401 100 mg/kg in the presence of 20 mg/kg of rifampicin) is reported as 14 fold, the “number of colonies, peptide administered alone” value (A. baumannii ATCC 17978; CMP1401 alone at 50 mg/kg) is reported as “No changes were observed in the number of colonies” and the “therapeutic efficacy of combination therapy with rifampicin” value (A. baumannii ATCC 17978; rifampicin and CMP1401) is reported as “excellent therapeutic efficacy”. The “destruction of inner membrane (β-galactosidase release)” value [1] was “did not destroy these membranes”, the “effect of co-administration with rifampicin compared with colistin” value (A. baumannii 801 [2]) was “comparable to that observed in a case where 32 mg/kg of colistin was administered” and the “Decreased MIC value of rifampicin at peptide concentration of 4 ug/ml” value (shortened to “Decreased MIC value of rifampicin”) (Kp NDM-1) was 0.0078 µg/mL. For the same substance, the “number of colonies fewer than rifampicin alone group” value (A. baumannii 801 [3]; [6]) was “about 12 times”, the “number of colonies fewer than untreated group (control)” value (A. baumannii 801 [3]; rifampicin and CMP1401 co-administered vs untreated) was “about 60 times” and the “number of colonies fewer than rifampicin and SPR741 group” value (A. baumannii 801 [3]; rifampicin and CMP1401 vs rifampicin and SPR741) was “about 30 times”. The “Decreased MIC value of rifampicin” value (P.a. ATCC 27853; FIG. 9D) was 0.25 µg/mL, the “Decreased MIC value of colisitin at peptide concentration of 4 ug/ml” value (P.a. ATCC 27853; FIG. 10B) was 0.016 µg/mL and the “Decreased MIC value of rifampicin” value ([4]; FIG. 9B, A.b. ATCC 17978, peptide 4 ug/ml) was 0.031 µg/mL. The “sensitizing effect for fusidic acid” value ([4]; peptide 0.31 μM, vs fusidic acid alone) was 250 times, the “sensitizing effect for novobiocin” value ([4]; peptide 0.31 μM, vs novobiocin alone) was 16 times and the “sensitizing effect for rifampicin” value ([4]; peptide 0.31 μM, vs rifampicin alone) was 64 times. For the same substance, the survival rate (A. baumannii 801 [5]; 2.5 mg/kg of rifampicin and 25 mg/kg of CMP1401 (intraperitoneal, QID) co-administered) was 50%, the “survival rate higher than rifampicin alone” value (A. baumannii 801 [5]; [6]) was “about 33.3%” and the “survival / antibacterial activity, peptide administered alone” value (A. baumannii 801 [5]; CMP1401 administered alone) was “all mice died”. The “Decreased MIC value of rifampicin” value (Ec NDM-1) was 0.0040 µg/mL, the “Decreased MIC value of rifampicin” value (K.p. ATCC 700603) was 0.0078 µg/mL and the “Decreased MIC value of rifampicin” value (K.p. KPC; FIG. 9G) was 0.0078 µg/mL. The “Decreased MIC value of colisitin at peptide concentration of 4 ug/ml” value (K.p. KPC; FIG. 10C) was 0.25 µg/mL.
